Laboratory results published in patent US7176199B2, “Aryl-substituted alicyclic compound and medical composition comprising the same” (Dainippon Pharmaceutical Co., Ltd., priority 2001, dated 2007).
Like-named read-outs stand apart in the source and are kept apart here.

Legend:
GPIIb/IIIa = GPIIb/IIIa (Homo sapiens, UniProt P05106+P08514); conditions: read-out: GPIIb/IIIa inhibitory activity IC50 value, cited from earlier work
αvβ3 integrin [1] = molecular target: T1, αvβ3 integrin (Homo sapiens, UniProt P05106+P06756); conditions: reported in WO 99/52872; read-out: αvβ3 integrin inhibitory activity IC50 value; cited from earlier work
αIIbβ3 integrin = molecular target: T2, αIIbβ3 integrin (Homo sapiens, UniProt P05106+P08514); test: Assay for the inhibition of αIIbβ3 integrin binding (fibrinogen as ligand, integrin captured from platelet lysate); conditions: inhibition of specific binding of biotinylated fibrinogen to αIIbβ3 integrin from human platelet lysate
T2 construct: from tissue; host or cells: human platelets (Triton X-100 lysate)
Experimental: Experiment 2: Assay for the Inhibition of αIIbβ3 Integrin Binding
This experiment was carried out based on the method described in Thromb. Haemostasis, 75, 339 (1996), Blood, 93, 2559 (1999), using fibrinogen as a ligand. According to the method described in the above literatures, assay for the inhibition of αIIbβ3 integrin binding can be achieved by capturing αIIbβ3 integrin from platelet lysate with the use of an activated antibody against αIIbβ3 integrin.
Human platelets were isolated in a conventional manner. At 25° C., the isolated platelets were adjusted to a concentration of 1.25×10^9/ml with TBS+[50 mM Tris-HCl (pH 7.4), 150 mM NaCl, 2 mM CaCl2], and then ⅛ volume of TBS^+ containing 2 mM leupepsin and 10 mM PMSF was added and stirred gently. Nest, 1/9 volume of TBS+ containing 10% Triton X-100 was added and stirred gently. After standing on ice for 30 minutes, a platelet lysate was prepared from the mixture by discarding the insoluble fraction with centrifugation (10,000 g, 15 minutes).
Anti-mouse IgG goat antibody (Jackson Immunoresearch Laboratories, Inc., USA) was adjusted to a concentration of 5 μg/ml with sodium carbonate buffer (pH 9.6) and added to plates at 50 μl/well. The plate was left at 4° C. overnight for immobilization of the antibody. All subsequent steps were done at 25° C., and the procedure for each well was described hereafter.
The well was washed once with TBS^+, and then 200 μl of TBS^+ containing 5% BSA was added to the well and left for one hour for blocking. The well was washed with a reaction solution (TBS^+ containing 0.1% BSA and 0.05% Triton X-100) 4 times, and then 50 μl of anti-human αIIbβ3 integrin activated monoclonal antibody (TAKARA SHUZO CO., LTD, Japan, PT25-2 strain) adjusted to 5 μg/ml with the reaction solution was added to the well. After one hour reaction, the well was washed 4 times with the reaction solution, and 50 μl of the platelet lysate diluted 1:2 with the reaction solution was added to the well. Following 2 hours reaction, the well was washed 4 times with the reaction solution, and 50 μl of the reaction solution was added to the well. Subsequently, 25 μl of a test compound solution adjusted to each concentration with the reaction solution was added, and then mixed with 25 μl of biotinylated fibrinogen (Calbiochem, Germany) adjusted to 2 μg/ml with the reaction solution. The mixture was reacted for one hour. After washing 4 times with the reaction solution, 100 μl of alkaline phosphatase-labeled streptoavidin (Gibco BRL, USA) diluted 1:500 with the reaction solution was added to the well. Following 30 minutes reaction, the well was washed 4 times with the wash solution. Next, 50 μl of the NaDPH solution (Invitrogen, former company name: Gibco BRL, USA) was added and reacted for 20 minutes, and then 50 μl of an amplification solution containing diaphorase and alcohol dehydrogenase (Invitrogen, former company name: Gibco BRL, USA) was added. Color was developed for 20 minutes and the reaction was stopped by adding 50 μl of 0.5 M sulfuric acid.
(§1) The absorbance at 495 nm was measured with a plate reader to obtain a total binding. To obtain a nonspecific binding, EDTA adjusted to 20 mM with the reaction solution was added instead of the test compound solution. A specific binding was calculated by subtracting the nonspecific binding from the total binding.

αvβ3 integrin [2] = molecular target: T1, αvβ3 integrin; test: Assay for the inhibition of αvβ3 integrin binding (vitronectin as ligand); design: purchased Chemicon International, Inc., USA; conditions: inhibition of specific binding of biotinylated human vitronectin to immobilized αvβ3 integrin
Experimental: Experiment 1: Assay for the Inhibition of αvβ3 integrin binding
This experiment was carried out based on the method described in […].
Purified human αvβ3 integrin (Chemicon International, Inc., USA) was adjusted to a concentration of 1 μg/ml with TBS^++ [20 mM Tris-HCl (pH 7.4), 150 mM NaCl, 1 mM CaCl2, 1 mM MgCl2], and the diluted solution was added to plates (Labsystems, Finland) at 50 μl/well. The plate was left at 4° C. overnight for immobilization of the αvβ3 integrin. All subsequent steps were done at 25° C., and the procedure for each well was described hereafter.
The solution was discarded, and then 200 μl of TBS^++ containing 1% BSA (Wako Pure Chemical Industries, Ltd., Japan) was added to the well and left for one hour for blocking. The well was washed with a wash solution (TBS^++ containing 0.01% Tween 20) 4 times, and 50 μl of a reaction solution (TBS^++ containing 0.1% BSA and 0.01% Tween 20) was added to the well. Subsequently, 25 μl of a test compound solution adjusted to each concentration with the reaction solution was added, and then mixed with 25 μl of biotinylated (Amersham Pharmacia Biotech, UK) human vitronectin (Gibco BRL, USA) adjusted to 0.4 μg/ml with the reaction solution. The mixture was reacted for 2 hours. After washing 4 times with the wash solution, 100 μl of peroxidase-labeled streptoavidin (Amersham Pharmacia Biotech, UK) diluted 1:500 with the reaction solution was added to the well. Following 30 minutes reaction, the well was washed 4 times with the wash solution, and 100 μl of a TMB substrate solution (Bio-Rad Laboratories, USA) was added to the well. Color was developed for 20 minutes and the reaction was stopped by adding 100 μl of 0.5 M sulfuric acid.
as §1, with “450” for “495”, “reader (Molecular Devices, USA)” for “reader”

T2 sequence (P08514 32-887 limits assumed): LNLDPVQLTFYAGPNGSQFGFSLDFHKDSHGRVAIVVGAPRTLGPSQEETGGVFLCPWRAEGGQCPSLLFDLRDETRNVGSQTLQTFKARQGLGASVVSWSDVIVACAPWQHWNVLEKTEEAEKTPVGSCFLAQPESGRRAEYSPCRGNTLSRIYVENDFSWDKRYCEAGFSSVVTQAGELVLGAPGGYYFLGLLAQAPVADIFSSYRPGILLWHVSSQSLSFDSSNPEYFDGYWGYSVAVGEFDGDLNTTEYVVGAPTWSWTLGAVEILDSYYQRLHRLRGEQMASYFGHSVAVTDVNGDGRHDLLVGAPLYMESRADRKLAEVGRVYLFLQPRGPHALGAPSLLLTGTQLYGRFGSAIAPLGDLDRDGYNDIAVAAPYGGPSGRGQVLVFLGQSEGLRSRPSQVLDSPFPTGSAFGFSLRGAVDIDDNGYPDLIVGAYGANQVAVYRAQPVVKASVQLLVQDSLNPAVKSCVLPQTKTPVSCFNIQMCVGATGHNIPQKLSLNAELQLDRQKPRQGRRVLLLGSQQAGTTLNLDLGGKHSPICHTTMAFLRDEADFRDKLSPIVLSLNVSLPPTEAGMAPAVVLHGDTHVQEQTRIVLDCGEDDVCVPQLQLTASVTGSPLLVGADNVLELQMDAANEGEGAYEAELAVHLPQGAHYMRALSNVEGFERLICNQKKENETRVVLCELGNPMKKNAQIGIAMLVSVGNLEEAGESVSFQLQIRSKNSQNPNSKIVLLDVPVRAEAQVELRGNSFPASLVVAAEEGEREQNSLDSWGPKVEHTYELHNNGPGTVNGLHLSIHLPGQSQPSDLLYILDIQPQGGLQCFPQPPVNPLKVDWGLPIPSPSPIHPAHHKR
T2 sequence (P08514 891-1039 partner limits assumed): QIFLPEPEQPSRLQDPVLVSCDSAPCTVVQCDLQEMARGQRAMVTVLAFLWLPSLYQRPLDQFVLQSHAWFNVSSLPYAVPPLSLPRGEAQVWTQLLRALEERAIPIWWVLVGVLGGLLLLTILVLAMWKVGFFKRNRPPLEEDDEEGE
T2 sequence (P05106 27-788): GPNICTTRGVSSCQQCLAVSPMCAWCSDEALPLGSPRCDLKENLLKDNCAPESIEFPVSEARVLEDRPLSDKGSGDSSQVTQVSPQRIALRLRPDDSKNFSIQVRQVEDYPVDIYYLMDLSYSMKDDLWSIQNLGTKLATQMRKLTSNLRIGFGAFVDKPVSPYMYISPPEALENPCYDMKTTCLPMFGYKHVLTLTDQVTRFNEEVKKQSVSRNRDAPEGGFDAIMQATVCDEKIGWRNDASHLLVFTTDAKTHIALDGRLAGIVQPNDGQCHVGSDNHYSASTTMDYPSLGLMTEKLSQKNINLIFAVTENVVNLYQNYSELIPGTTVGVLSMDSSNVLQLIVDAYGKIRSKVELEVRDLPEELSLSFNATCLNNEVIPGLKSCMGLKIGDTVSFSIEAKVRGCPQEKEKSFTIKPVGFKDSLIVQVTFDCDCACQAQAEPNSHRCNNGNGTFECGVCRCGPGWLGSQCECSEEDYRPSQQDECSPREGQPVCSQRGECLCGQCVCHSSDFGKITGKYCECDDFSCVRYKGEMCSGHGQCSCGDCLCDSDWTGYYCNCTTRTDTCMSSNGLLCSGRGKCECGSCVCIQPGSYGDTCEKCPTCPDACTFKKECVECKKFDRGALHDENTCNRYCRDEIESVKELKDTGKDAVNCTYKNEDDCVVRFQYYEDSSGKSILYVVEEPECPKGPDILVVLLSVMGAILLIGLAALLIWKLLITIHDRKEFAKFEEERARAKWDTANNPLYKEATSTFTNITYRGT
T1 sequence (P06756 31-889 limits assumed): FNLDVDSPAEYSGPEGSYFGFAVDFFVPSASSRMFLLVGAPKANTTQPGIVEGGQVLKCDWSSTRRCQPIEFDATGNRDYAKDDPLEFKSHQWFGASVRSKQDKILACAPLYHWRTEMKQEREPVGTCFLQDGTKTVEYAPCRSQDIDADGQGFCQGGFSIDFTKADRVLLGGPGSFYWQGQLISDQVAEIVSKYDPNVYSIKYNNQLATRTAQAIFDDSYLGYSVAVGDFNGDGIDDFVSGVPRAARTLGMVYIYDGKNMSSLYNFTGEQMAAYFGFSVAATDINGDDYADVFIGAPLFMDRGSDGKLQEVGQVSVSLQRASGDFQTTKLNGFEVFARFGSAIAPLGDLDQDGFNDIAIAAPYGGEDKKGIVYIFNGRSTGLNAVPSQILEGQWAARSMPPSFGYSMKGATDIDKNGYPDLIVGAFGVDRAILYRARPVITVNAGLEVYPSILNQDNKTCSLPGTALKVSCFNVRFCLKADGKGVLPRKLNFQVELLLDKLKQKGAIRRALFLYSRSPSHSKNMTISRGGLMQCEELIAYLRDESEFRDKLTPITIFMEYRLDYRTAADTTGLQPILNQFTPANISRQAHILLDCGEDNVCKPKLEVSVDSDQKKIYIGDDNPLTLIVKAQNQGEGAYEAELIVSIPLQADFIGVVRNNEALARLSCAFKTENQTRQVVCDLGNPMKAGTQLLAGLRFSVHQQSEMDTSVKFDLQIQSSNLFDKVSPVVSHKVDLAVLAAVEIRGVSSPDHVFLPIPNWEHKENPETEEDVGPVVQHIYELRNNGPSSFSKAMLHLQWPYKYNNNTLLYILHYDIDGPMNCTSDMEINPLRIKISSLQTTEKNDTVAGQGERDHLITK
T1 sequence (P06756 891-1048 partner limits assumed): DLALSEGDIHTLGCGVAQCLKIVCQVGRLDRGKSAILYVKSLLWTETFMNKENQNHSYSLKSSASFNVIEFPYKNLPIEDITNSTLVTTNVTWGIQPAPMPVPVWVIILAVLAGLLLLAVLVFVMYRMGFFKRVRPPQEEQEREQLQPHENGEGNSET
T1 sequence (P05106 27-788): as the sequence (P05106 27-788) above
Sequence of GPIIb/IIIa (P08514 32-887 limits assumed): as the sequence (P08514 32-887 limits assumed) above
Sequence of GPIIb/IIIa (P08514 891-1039 partner limits assumed): as the sequence (P08514 891-1039 partner limits assumed) above
Sequence of GPIIb/IIIa (P05106 27-788): as the sequence (P05106 27-788) above

| SMILES | IC50 (αIIbβ3 integrin) | IC50 (αvβ3 integrin [2]) | IC50 (GPIIb/IIIa; reported in WO 99/38849) | IC50 (GPIIb/IIIa; reported in WO 99/52872) | IC50 (αvβ3 integrin [1]) |
| --- | --- | --- | --- | --- | --- |
| O=C(NC[C@H](NS(=O)(=O)c1ccccc1)C(=O)O)c1ccc(N2CCN(C3=NCCCN3)CC2)c(Cl)c1 [Example A-1, (2S)-2-benzenesulfonylamino-3-[3-chloro-4-[4-(1,4,5,6-tetrahydropyrimidin-2-yl)piperazin-1-yl]benzoylamino]propanoic acid] |  |  | ≤ 0.2 nM |  |  |
| O=C(NC[C@H](NS(=O)(=O)c1ccccc1)C(=O)O)c1ccc(N2CCC(NC3=NCCCN3)CC2)c(F)c1 [Example A-2, (2S)-2-benzenesulfonylamino-3-[3-fluoro-4-[[4-(1,4,5,6-tetrahydropyrimidin-2-yl)amino]-piperidin-1-yl]benzoylamino]propanoic acid] |  |  |  | ≤ 1 nM | ≤ 1 nM |
| CCCCCCCCCCOC(=O)N[C@@H](CCC(=O)N1CCN(c2cccc(NC3=NCC(C)(C)CN3)c2)CC1)C(=O)O [Ex. 132] | > 1000 nM | 1.7 nM |  |  |  |
| CC(C)COC(=O)N[C@@H](CNC(=O)C1CCN(c2cccc(NC3=NCCCN3)c2)CC1)C(=O)O [Ex. 92, (2S)-2-isobutoxycarbonylamino-3-[[1-[3-(1,4,5,6-tetrahydropyrimidin-2-yl)aminophenyl]piperidin-4-yl]carbonylamino]propanoic acid] | 72 nM | 0.066 nM |  |  |  |
| CC(C)COC(=O)N[C@@H](CNC(=O)C1CCN(c2cccc(NC3=NCC(C)(C)CN3)c2)CC1)C(=O)O [Ex. 18, (2S)-2-isobutoxycarbonylamino-3-[[1-[3-(5,5-dimethyl-1,4,5,6-tetrahydropyrimidin-2-yl)aminophenyl]piperidin-4-yl]carbonylamino]-propanoic acid] | 310 nM | 0.13 nM |  |  |  |
| CC(C)COC(=O)N[C@@H](CNC(=O)C1CCN(c2cccc(NC3=NCC(O)CN3)c2)CC1)C(=O)O (stereo partly drawn) [Ex. 20, (2S)-2-Isobutoxycarbonylamino-3-[[1-[3-(5-hydroxy-1,4,5,6-tetrahydropyrimidin-2-yl)aminophenyl]piperidin-4-yl]carbonylamino]-propanoic acid] | 37 nM | 0.061 nM |  |  |  |
| O=C(N[C@@H](CNC(=O)C1CCN(c2cccc(NC3=NCCN3)c2)CC1)C(=O)O)OCc1ccccc1 [Ex. 9, (2S)-2-benzyloxycarbonylamino-3-[[1-[3-(2-imidazolin-2-yl)aminophenyl]piperidin-4-yl]carbonylamino]propanoic acid] | 54 nM | 0.059 nM |  |  |  |
| CCCCCCCCCCOC(=O)N[C@@H](CNC(=O)C1CCN(c2cccc(NC3=NCCCN3)c2)CC1)C(=O)O [Ex. 90, (2S)-2-decyloxycarbonylamino-3-[[1-[3-(1,4,5,6-tetrahydropyrimidin-2-yl)aminophenyl]piperidin-4-yl]carbonylamino]propanoic acid] | 260 nM | 0.23 nM |  |  |  |
| CCCCCCOC(=O)N[C@@H](CCC(=O)N1CCN(c2cccc(NC3=NCC(O)CN3)c2)CC1)C(=O)O (stereo partly shown) [Ex. 131] | 57 nM | 0.3 nM |  |  |  |
| O=C(C[C@H](NC(=O)OCc1ccccc1)C(=O)O)NC1CCN(c2cccc(NC3=NCCCN3)c2)CC1 [Ex. 146, (2S)-2-benzyloxycarbonylamino-4-[[1-[3-(1,4,5,6-tetrahydropyrimidin-2-yl)aminophenyl]piperidin-4-yl]amino]-4-oxobutanoic acid] | 4200 nM | 1 nM |  |  |  |
| CCCCCCCCCCOC(=O)N[C@@H](CCC(=O)N1CCN(c2cccc(NC3=NCC(O)CN3)c2)CC1)C(=O)O (stereo partly shown) [Ex. 134] | > 1000 nM | 0.64 nM |  |  |  |

Further lines, with some results ahead:

| IC50 (αIIbβ3 integrin) | IC50 (αvβ3 integrin [2]) | SMILES | IC50 (GPIIb/IIIa; reported in WO 99/38849) | IC50 (GPIIb/IIIa; reported in WO 99/52872) | IC50 (αvβ3 integrin [1]) |
| --- | --- | --- | --- | --- | --- |
| 77 nM | 0.1 nM | CC(C)COC(=O)N[C@@H](CNC(=O)C1CCN(c2cc(NC3=NCCCN3)ccn2)CC1)C(=O)O [Ex. 161] |  |  |  |
| 380 nM | 0.094 nM | CCOC(=O)N[C@@H](CNC(=O)C1CCN(c2cccc(NC3=NCCCN3)c2)CC1)C(=O)O [Ex. 86, (2S)-2-ethoxycarbonylamino-3-[[1-[3-(1,4,5,6-tetrahydropyrimidin-2-yl)aminophenyl]piperidin-4-yl]carbonylamino]propanoic acid] |  |  |  |
| 88 nM | 0.35 nM | CCCCCCNC(=O)N[C@@H](CNC(=O)C1CCN(c2cccc(NC3=NCCCN3)c2)CC1)C(=O)O [Ex. 117, (2S)-2-hexylaminocarbonylamino-3-[[1-[3-(1,4,5,6-tetrahydropyrimidin-2-yl)aminophenyl]piperidin-4-yl]carbonylamino]propanoic acid] |  |  |  |
| 800 nM | 0.11 nM | CC(C)OC(=O)N[C@@H](CNC(=O)C1CCN(c2cccc(NC3=NCCCN3)c2)CC1)C(=O)O [Ex. 44, (2S)-2-isopropoxycarbonylamino-3-[[1-[3-(1,4,5,6-tetrahydropyrimidin-2-yl)aminophenyl]piperidin-4-yl]carbonylamino]-propanoic acid] |  |  |  |
| 86 nM | 0.06 nM | O=C(N[C@@H](CNC(=O)C1CCN(c2cc(NC3=NCCCN3)ccn2)CC1)C(=O)O)OCc1ccccc1 [Ex. 159, (2S)-2-benzyloxycarbonylamino-3-[[1-[4-(1,4,5,6-tetrahydropyrimidin-2-yl)aminopyridin-2-yl]piperidin-4-yl]carbonylamino]-propanoic acid] |  |  |  |
